Molecules are shown by their SMILES.

One may read the IC50 as the midpoint of a concentration-inhibition curve. A word on the inhibition: it is the percentage by which the read-out fell short of the control.

In test [1] the target is T1, Dipeptidyl peptidase 4 (Homo sapiens, UniProt P27487). Briefly: Inhibition of human DPP-4 assessed as cleavage of substrate using H-Gly-Pro-pNA chromogenic substrate after 10 mins by double beam spectrophotometer.
Target sequence in this assay (P27487 whole entry): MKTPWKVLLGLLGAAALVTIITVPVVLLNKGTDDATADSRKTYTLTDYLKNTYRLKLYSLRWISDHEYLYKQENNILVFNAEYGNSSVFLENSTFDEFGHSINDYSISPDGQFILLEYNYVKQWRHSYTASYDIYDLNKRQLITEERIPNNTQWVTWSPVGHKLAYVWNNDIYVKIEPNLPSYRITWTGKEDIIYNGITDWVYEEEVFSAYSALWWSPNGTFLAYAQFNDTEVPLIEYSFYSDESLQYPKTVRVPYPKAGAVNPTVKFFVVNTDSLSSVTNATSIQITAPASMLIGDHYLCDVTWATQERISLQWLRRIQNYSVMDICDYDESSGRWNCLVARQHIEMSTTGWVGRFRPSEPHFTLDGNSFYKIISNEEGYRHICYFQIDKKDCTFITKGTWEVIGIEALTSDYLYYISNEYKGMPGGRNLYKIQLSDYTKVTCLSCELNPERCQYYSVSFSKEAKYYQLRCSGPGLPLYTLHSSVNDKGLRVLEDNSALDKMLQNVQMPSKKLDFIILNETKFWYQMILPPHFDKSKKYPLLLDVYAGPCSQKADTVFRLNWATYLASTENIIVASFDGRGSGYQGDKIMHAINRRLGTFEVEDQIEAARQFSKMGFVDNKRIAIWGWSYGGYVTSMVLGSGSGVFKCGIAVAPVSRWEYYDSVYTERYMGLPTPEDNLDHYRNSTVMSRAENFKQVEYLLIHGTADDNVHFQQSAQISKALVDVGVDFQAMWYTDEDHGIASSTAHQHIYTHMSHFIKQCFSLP
For test [2], the target named is T1, Dipeptidyl peptidase 4. Briefly: Inhibition of human DPP-4 assessed as cleavage of substrate using H-Gly-Pro-pNA chromogenic substrate at 10 uM after 10 mins by double beam spectrophotometer.
Target sequence in this assay (P27487 whole entry, looked up): as the sequence (P27487 whole entry) above

For `CCCN1C(c2ccc(OC)cc2)CC(=O)[C@H]2C1C[C@H]1[C@@H]3CC=C4C[C@@H](O)CC[C@]4(C)[C@H]3CC[C@]21C` (stereo not given in full), the IC50 on Dipeptidyl peptidase 4 [1] stood at 32.7 µM. Moreover, the inhibition on Dipeptidyl peptidase 4 [2] is 20.4%.

On to `CC(=O)O[C@H]1CC[C@@]2(C)C(=CC[C@@H]3[C@@H]2CC[C@]2(C)C(C(C)=O)=CC[C@@H]32)C1`, for which the half-maximal inhibitory concentration (IC50) on Dipeptidyl peptidase 4 [1] was 35.6 µM. In addition, at Dipeptidyl peptidase 4 [2], the inhibition stood at 17.3%.

On to `CCCN1C(c2ccc(C(C)C)cc2)CC(=O)[C@H]2C1C[C@H]1[C@@H]3CC=C4C[C@@H](O)CC[C@]4(C)[C@H]3CC[C@]21C` (stereo not given in full), for which the IC50 on Dipeptidyl peptidase 4 [1] came to 29.1 µM. Moreover, the inhibition on Dipeptidyl peptidase 4 [2] was determined as 19.1%.

Turning to `CC(=O)[C@H]1C(NCc2ccccc2)C[C@H]2[C@@H]3CC=C4C[C@@H](O)CC[C@]4(C)[C@H]3CC[C@]12C` (stereo not given in full), the IC50 on Dipeptidyl peptidase 4 [1] worked out at 21.3 µM. Also, the inhibition on Dipeptidyl peptidase 4 [2] was 28.4%.

Regarding `COc1ccc(/C=C/C(=O)C2=CC[C@H]3[C@@H]4CC=C5C[C@@H](O)CC[C@]5(C)[C@H]4CC[C@]23C)cc1OC`, on Dipeptidyl peptidase 4 [1], the IC50 came out at 26.2 µM. In addition, at Dipeptidyl peptidase 4 [2], the inhibition was 24.1%.

These data come from ChEMBL document CHEMBL1759980, “Aza-annulation on the 16-dehydropregnenolone, via tandem intermolecular aldol process and intramolecular Michael addition” (Bioorg Med Chem Lett, 2011).
